Measured values from a melting point compilation (Tetko et al.).

melting point [°C] | Compound
119 to 121 | O=C(CCl)Nc1cc(-n2nnnc2C2CC2)ccc1F
134 to 136 | CCC(=O)c1cnccc1N
74 to 76 | Cc1ccc(F)c(N2CCCC(Br)C2=O)c1 (stereo not given)
114 to 116 | Nc1ccccc1S(=O)(=O)N1CCOCC1
199 to 201 | O=C(O)c1nn(Cc2ccccc2)c(=O)c2ccccc12
89 to 91 | CCCCOc1c(Cl)cc(C(=O)O)cc1OCC
125 to 127 | CCCCc1ccc(NC(=S)NN)cc1
307 to 309 | N#CC1=C(N)N2Cc3ccccc3CC2C1=O (stereo not given)
165 to 167 | CC(C)(C(=O)O)c1ccc(N)cc1
82 to 84 | CC(C)(C)Oc1cccc(CCC(=O)O)n1
183 to 185 | O=C(O)CCc1nc2ccccc2c(=O)n1C1CC1
110 to 112 | Cc1nn(CCO)c2ncc(Br)cc12
228 to 230 | NNC(=O)c1ccc(-n2cnnn2)cc1
168 to 170 | O=C(O)C1Cc2ccccc2N1 (stereo not given)
83 to 85 | CC(C)(C)c1ccc(Cl)nn1
76 to 78 | COC(=O)c1ccc(OC)cc1N
234 to 236 | O=C(O)c1cc(S(=O)(=O)N2CCOCC2)ccc1O
169 to 171 | Nc1nnc(CO)s1
209 to 211 | CN1C(=O)CCc2cc(C(=O)O)ccc21
99 to 101 | O=Cc1ccc(-c2cccc(Br)c2)o1
96 to 98 | O=S(=O)(c1cccc(CO)c1)N1CCOCC1
71 to 73 | CC(C)(NS(C)(=O)=O)C(=O)O
73 to 75 | CC1Cc2cc(S(=O)(=O)Cl)ccc2O1 (stereo not given)
92 to 94 | O=[N+]([O-])c1ccc(OCc2ccccc2)cc1

melting point [°C] | Compound
249 to 251 | CC(C)(C)N1C(=O)CC(C(=O)O)C1c1ccc(Cl)c(F)c1 (stereo not given)
61 to 63 | O=S(=O)(Cl)c1cc(Br)cnc1Cl
203 to 205 | Cc1[nH]c2ccccc2c1C(=O)CBr
190 to 192 | CC1(c2cccc(-n3cnnn3)c2)NC(=O)NC1=O (stereo not given)
61 to 63 | CC(CC(=O)O)c1ccccc1Br (stereo not given)
156 to 158 | CC1CCCCC12NC(=O)N(CC(=O)O)C2=O (stereo not given)
170 to 172 | CN1CCN(S(=O)(=O)c2ccc(C(=O)NN)cc2)CC1
103 to 105 | Nc1c(F)cccc1-n1cncn1
85 to 87 | Oc1cccc2ccc(N3CCCC3)nc12
79 to 81 | O=C(CCl)N(Cc1ccccc1)c1ccccc1
212 to 214 | O=C(O)c1ccc(Cl)c(I)c1
159 to 161 | NC(=O)Nc1ccc2c(c1)OCCO2
113 to 115 | CCCCC1(c2ccc(F)cc2)NC(=O)NC1=O (stereo not given)
108 to 110 | NNC(=O)Cn1cnc2ccccc21
118 to 122 | O=C(O)c1cc(F)c(F)cc1Br
98 to 100 | CC(C)OC(=O)N1CCC(C(=O)O)(C(F)(F)F)C1 (stereo not given)
34 to 36 | O=S(=O)(Cl)CCOc1ccc(F)cc1
134 to 136 | O=C(O)CCC(=O)N1CCSc2ccccc21
239 to 241 | O=C(O)c1cccc(Nc2cnccn2)c1
229 to 231 | O=C(O)CN1C(=O)COc2ccccc21
289 to 291 | CC(=O)Nc1cc(S(=O)(=O)Cl)ccc1O
104 to 106 | CC(O)c1ccccc1-c1ccccc1 (stereo not given)
191 to 193 | O=c1[nH]c(Nc2ccccc2)cc2ccccc12
129 to 131 | COc1ccc(Cl)c(S(N)(=O)=O)c1

melting point [°C] | Compound
76 to 78 | Cc1ccnc(Oc2cc(N)ccc2C)c1
105 to 106 | Cc1cccc(NC(=O)CCN)n1
147 to 149 | NC(CC(=O)N1CCOCC1)=NO
178 to 180 | O=C(O)c1cccc(S(=O)(=O)N2CCCCC2)c1
67 to 69 | OC1CCSc2ccccc21 (stereo not given)
83 to 87 | Cc1cc(C(=O)CCl)c(C)n1-c1ccc(OC(F)F)cc1
89 to 91 | O=Cc1sc(N2CCCCC2)nc1Cl
179 to 181 | Cc1cc(S(=O)(=O)Cl)cc(C(=O)O)c1C
222 to 224 | CS(=O)(=O)N1CCN(S(=O)(=O)Cl)CC1
99 to 101 | O=C(O)CC(=O)NC1CC1
142 to 144 | O=C(O)c1ccc(S(=O)(=O)Cl)cc1F
133 to 135 | O=C(CCl)NCC(=O)c1cccs1
28 to 30 | Sc1nnnn1CC1CCCO1 (stereo not given)
106 to 108 | Cc1ccc(C)n1-c1ccc(CC(=O)O)cc1
134 to 136 | CCNC(=O)N1CCc2ccc(N)cc21
144 to 146 | Nc1cccc(CS(N)(=O)=O)c1
106 to 108 | O=C(O)CCc1cccc(F)c1F
70 to 72 | CCOC(=O)c1ccc2c(c1)nc(C)n2CC
108 to 110 | CC(C)Cc1ccc(-c2csc(N)n2)cc1
94 to 96 | Cc1ccccc1-n1c(S)nnc1-c1cccnc1
168 to 170 | Nc1ccn(CC(=O)N2CCOCC2)n1
188 to 190 | NC(=O)c1ccc(Cl)cc1O
147 to 149 | NS(=O)(=O)c1cc(Cl)c(Br)s1
194 to 196 | O=C(O)C(c1ccccc1)N1C(=O)CCC1=O (stereo not given)

melting point [°C] | Compound
83 to 85 | FC(F)(F)C1(NCc2ccccc2)CCC2(CC1)OCCO2
160 to 162 | Cc1ccc(/C=C/C(=O)O)s1
161 to 163 | c1cnn(-c2ccc(N3CCNCC3)nn2)c1
66 to 68 | Nc1cnccc1-c1cccc(F)c1
130 to 132 | CC(C)(C)OC(=O)NCCNS(=O)(=O)c1ccc(N)cc1
103 to 105 | Cn1cc(C=O)nn1
93 to 95 | CN(C)C(=O)c1ccc(C#N)cc1
227 to 229 | NC(=S)Cc1nnc2n1CCCCC2
161 to 163 | CCOC(=O)c1c[nH]cc1C(F)(F)F
121 to 123 | O=C(O)C1CCCn2c1n[nH]c2=O (stereo not given)
181 to 183 | NS(=O)(=O)c1ccc(Cl)c2ccccc12
128 to 130 | N#Cc1cc2c(nc1Cl)CCCC2
137 to 139 | CCCc1nc(C(=O)O)nn1-c1ccccc1F
157 to 159 | O=C(O)c1ccc(Cl)cc1I
136 to 138 | O=C(O)c1csc(I)c1
99 to 101 | OC(c1ccccc1)c1nccs1 (stereo not given)
117 to 119 | COC(=O)CC(NC(=S)NC12CC3CC(CC(C3)C1)C2)C(=O)OC (stereo not given)
161 to 163 | COc1c(C(=O)O)cc(Cl)cc1[N+](=O)[O-]
112 to 114 | Cn1cncc1CO
131 to 133 | CN(c1ccc(O)cc1)S(=O)(=O)c1ccccc1
228 to 230 | CS(=O)(=O)c1ccc(Cl)c(S(N)(=O)=O)c1
177 to 179 | Cc1cc(N)n(C2CCOCC2)n1
217 to 219 | Nc1ccc(-n2cc[nH]c2=O)cc1
165 to 167 | O=C(O)C(c1ccccc1)N1CCS(=O)(=O)CC1 (stereo not given)

melting point [°C] | Compound
155 to 157 | O=C(NCCO)c1ccc(O)cc1
124 to 126 | NC(=S)c1cccnc1N
96 to 98 | NS(=O)(=O)N1CCCC1
198 to 200 | COc1ccc(S(=O)(=O)NC(C)(C)C)c(CC(=O)O)c1
89 to 91 | Nc1cccc(Oc2cnccn2)c1
192 to 194 | CC(=O)Nc1c(Br)cccc1[N+](=O)[O-]
167 to 169 | O=C(O)c1cccnc1Oc1cccc(Br)c1
110 to 112 | CS(=O)(=O)c1cccc(OCC(=O)O)c1
69 to 71 | COc1ccc(Br)cc1Cl
76 to 78 | Cc1ccc(S(=O)(=O)N2CCOCC2)cc1NC(=O)CCl
280 to 282 | N#CCc1nc(N)nc(N)n1
116 to 118 | COc1ccc(NC(=O)OC(C)(C)C)c(N)c1
72 to 74 | O=C(Nc1ccc(F)cc1F)OCC(F)(F)F
89 to 91 | CCC(C)NS(=O)(=O)c1cccc(N)c1 (stereo not given)
251 to 253 | O=C1CSc2ccc(C(=O)O)cc2N1
155 to 157 | CCc1cccc(C)c1Nc1nnc(S)s1
81 to 83 | CCOC(=O)c1sc(-c2ccc(F)c(F)c2)nc1C
169 to 171 | CC(C)(C)OC(=O)Nc1ccc(CC(=O)N2CCNCC2)cc1
62 to 64 | C=CCNC(=O)c1cccc(S(=O)(=O)Cl)c1
113 to 115 | NC(=O)c1cccc(CO)c1
219 to 221 | O=C1Nc2c(F)cc(Cl)cc2C1=O
289 to 291 | Cc1nc(C)n(-c2ccc(C(=O)O)cc2)n1
206 to 208 | Cc1[nH]c2c(C(=O)O)cccc2c1C
45 to 47 | COc1cc(C=O)ccc1SC

melting point [°C] | Compound
103 to 105 | CCC(C)(C)c1ccc(C(=O)O)cc1
173 to 175 | Cc1nnc(-c2cccc(C#N)c2)[nH]1
189 to 191 | Cc1cccc(NC(=O)N2CCC(C(=O)O)CC2)c1
169 to 171 | Nc1ncc(Br)cc1S(=O)(=O)N1CCCC1
106 to 108 | Nc1cc(N2CCCC2=O)ccc1F
239 to 241 | O=C(O)C1CCCN(C(=O)c2ccc3[nH]ncc3c2)C1 (stereo not given)
115 to 127 | CC(C)(C)C(=O)N1CCC(C(=O)O)CC1
95 to 97 | CC(C)(C)NCCC(N)=O
62 to 64 | CC(C)(C)C(N)CN1CCc2ccccc2C1 (stereo not given)
172 to 174 | Nc1nc(-c2ccncc2)cs1
100 to 102 | CCc1nnc2ccc(Cl)nn12
161 to 163 | COCCCn1cnnc1S
156 to 158 | O=C(O)CNC(=O)c1ccc(Oc2ccccc2)cc1
124 to 126 | COc1ccc(C2(C)NC(=O)N(NC(=O)CCl)C2=O)cc1 (stereo not given)
79 to 81 | COc1c(N)cc(C(C)(C)C)cc1C(C)(C)C
194 to 196 | CC(C)N(C)S(=O)(=O)c1ccc(F)c(C(=O)O)c1
199 to 201 | Cc1[nH]c2ccccc2c1C(=O)C(=O)O
44 to 46 | c1ccc(CN2CCNc3ccccc32)cc1
89 to 91 | O=C(O)C=C1CCC1

Compound | melting point [°C]
CNC(=O)Cc1noc(CCl)n1 | 89 to 91
Nc1ccncc1F | 71 to 79
ClCc1csc(-c2ccsc2)n1 | 64 to 66
Nc1nc(N)nc(CCl)n1 | 221 to 223
NCCc1cccc(OCCCc2ccccc2)c1 | 44 to 46
COC(=O)c1ccc(CBr)s1 | 36 to 38
